The results in this text go back to ChEMBL document CHEMBL1156471, “Targeting host cell furin proprotein convertases as a therapeutic strategy against bacterial toxins and viral pathogens” (J Biol Chem, 2007).

pKi: −log10 of the molar value. Non-standard residues stand in square brackets, D forms with d. Residues, ends and D or L forms follow the SMILES beside them. Sar = CNCC(=O)O

The test has as its target Furin (Homo sapiens, UniProt P09958).

Furin, sequence (P09958 whole entry): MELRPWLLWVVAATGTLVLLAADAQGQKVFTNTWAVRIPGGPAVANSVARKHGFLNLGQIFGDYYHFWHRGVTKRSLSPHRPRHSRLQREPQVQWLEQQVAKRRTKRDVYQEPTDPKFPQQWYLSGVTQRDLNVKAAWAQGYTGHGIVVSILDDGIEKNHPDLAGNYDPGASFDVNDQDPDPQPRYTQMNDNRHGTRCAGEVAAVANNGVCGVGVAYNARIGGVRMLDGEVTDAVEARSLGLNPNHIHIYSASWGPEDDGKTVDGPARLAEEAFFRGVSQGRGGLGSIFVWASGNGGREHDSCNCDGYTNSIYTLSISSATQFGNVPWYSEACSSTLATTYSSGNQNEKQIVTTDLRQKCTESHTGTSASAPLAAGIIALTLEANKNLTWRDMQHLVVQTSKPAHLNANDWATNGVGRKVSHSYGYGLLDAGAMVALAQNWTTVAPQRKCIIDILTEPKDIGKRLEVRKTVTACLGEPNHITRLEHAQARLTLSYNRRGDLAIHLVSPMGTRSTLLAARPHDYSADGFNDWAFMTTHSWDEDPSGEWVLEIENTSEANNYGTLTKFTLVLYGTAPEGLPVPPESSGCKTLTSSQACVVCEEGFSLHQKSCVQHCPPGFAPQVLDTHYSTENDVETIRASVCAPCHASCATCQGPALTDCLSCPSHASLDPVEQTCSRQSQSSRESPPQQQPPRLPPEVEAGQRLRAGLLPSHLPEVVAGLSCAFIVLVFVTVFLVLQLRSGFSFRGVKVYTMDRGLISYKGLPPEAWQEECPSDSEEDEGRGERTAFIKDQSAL

The pKi is the negative decadic logarithm of the Ki, by convention in mol/L. Compound H-TPRPRRRKKRG-NH2 had a pKi of under 7.00.

In turn, H-TPRERRRKKAV-OH gave a negative logarithm of the Ki (pKi) of under 7.00.

For `C[C@H](NC(=O)[C@H](CCCNC(=N)N)NC(=O)[C@H](CCC(N)=O)NC(=O)[C@@H]1CCCN1C(=O)[C@@H](N)[C@@H](C)O)C(=O)N[C@@H](CCCNC(=N)N)C(=O)N[C@@H](CCCNC(=N)N)C(=O)N[C@@H](CCCNC(=N)N)C(=O)N[C@@H](CCCCN)C(=O)N[C@@H](CCCCN)C(=O)N[C@H](CCCCN)C(=O)NCC(=O)O`, the negative-log Ki (pKi) was under 7.00.

As for H-TPAERRRKKRG-NH2, the pKi was under 7.00.

With `CC(C)C[C@H](NC(=O)[C@H](CCCNC(=N)N)NC(=O)[C@H](CCC(N)=O)NC(=O)[C@@H]1CCCN1C(=O)[C@@H](N)[C@@H](C)O)C(=O)N[C@@H](CCCNC(=N)N)C(=O)N[C@@H](CCCNC(=N)N)C(=O)N[C@@H](CCCNC(=N)N)C(=O)N[C@@H](CCCCN)C(=O)N[C@@H](CCCCN)C(=O)N[C@@H](CCCNC(=N)N)C(=O)NCC(=O)O`, the negative logarithm of the Ki (pKi) was under 7.00.

Consider H-TPAERRRKKR-OH, for which the pKi is under 7.00.

Compound H-TPRERRRKKRV-OH had a pKi of under 7.00.

H-TPRRRRRKKRG-OH gave a pKi of under 7.00.

H-TPRERRRKAA-OH had a pKi of under 7.00.

The compound H-GGGGGGTPQRARRRKKRW-OH had a pKi of 7.06.

As for `C[C@H](NC(=O)[C@H](CCCNC(=N)N)NC(=O)[C@H](CCC(N)=O)NC(=O)[C@@H]1CCCN1C(=O)[C@@H](N)[C@@H](C)O)C(=O)N[C@@H](CCCNC(=N)N)C(=O)N[C@@H](CCCNC(=N)N)C(=O)N[C@@H](CCCNC(=N)N)C(=O)N[C@@H](CCCCN)C(=O)N[C@@H](CCCCN)C(=O)N[C@@H](CCCNC(=N)N)C(=O)N[C@H](CCCCN)C(=O)O`, the pKi was under 7.00.

Compound `C[C@H](O)[C@H](N)C(=O)N1CCC[C@H]1C(=O)N[C@@H](CCCNC(=N)N)C(=O)N[C@H](CCC(=O)O)C(=O)N[C@@H](CCCNC(=N)N)C(=O)N[C@@H](CCCNC(=N)N)C(=O)N[C@@H](CCCNC(=N)N)C(=O)N[C@@H](CCCCN)C(=O)N[C@@H](CCCCN)C(=O)N[C@@H](CCCNC(=N)N)C(=O)NCC(N)=O` had a pKi of under 7.00.

Compound H-TPRTRRRKKRG-OH gave a pKi of under 7.00.

With H-TPRARRRKKRV-NH2, the pKi was 7.10.

Regarding H-TPRARRRKKRK-NH2, the pKi was under 7.00.

Consider H-TPRARRRKKRE-NH2, for which the pKi is under 7.00.

On to H-TARERRRKKRG-OH, for which the pKi was under 7.00.

With H-TPQRARRRKKRE-OH, the pKi is 6.99.

Regarding H-TPRERAAKKRG-OH, the pKi is under 7.00.

In turn, H-TPRERRAKKRG-OH showed a negative logarithm of the Ki (pKi) of under 7.00.

H-TPREAAAKKRG-OH had a pKi of under 7.00.

Compound H-GGGGGGTPRARRRKKRF-OH showed a negative logarithm of the Ki (pKi) of 7.35.

Compound H-TPREAARKKRG-OH showed a pKi of under 7.00.

H-TPRYRRRKKRG-NH2 had a pKi of under 7.00.

Turning to H-TPQRARRRKKRN-OH, the pKi is under 7.00.

H-TPRARRRKKRS-OH had a pKi of under 7.00.

For the compound H-TPRERRRKARG-NH2, the pKi is under 7.00.

In turn, H-TPQRQRRRKKRG-OH gave a pKi of under 7.00.

Regarding H-TPRERRRAKR-OH, the pKi was under 7.00.

In the case of H-TPRERRRKAR-OH, the pKi was under 7.00.

Consider `C[C@H](NC(=O)[C@H](CCCNC(=N)N)NC(=O)[C@H](CCC(N)=O)NC(=O)[C@@H]1CCCN1C(=O)[C@@H](N)[C@@H](C)O)C(=O)N[C@@H](CCCNC(=N)N)C(=O)N[C@@H](CCCNC(=N)N)C(=O)N[C@@H](CCCNC(=N)N)C(=O)N[C@@H](CCCCN)C(=O)N[C@@H](CCCCN)C(=O)N[C@@H](CCCNC(=N)N)C(=O)N[C@@H](CCCCN)C(=O)O`, for which the pKi is under 7.00.

Compound `C[C@H](NC(=O)[C@H](C)NC(=O)[C@H](CCCN=C(N)N)NC(=O)[C@H](CCCN=C(N)N)NC(=O)[C@H](CCCN=C(N)N)NC(=O)[C@H](CCC(=O)O)NC(=O)[C@H](CCCN=C(N)N)NC(=O)[C@@H]1CCCN1C(=O)[C@@H](N)[C@@H](C)O)C(=O)N[C@@H](CCCN=C(N)N)C(=O)N(C)CC(=O)O` gave a pKi of under 7.00.

In the case of H-TPRWRRRKKRG-OH, the negative logarithm of the Ki (pKi) is under 7.00.

Turning to H-TPAARRRKKRG-OH, the negative logarithm of the Ki (pKi) was under 7.00.

H-TPRARRRKKRG-OH showed a pKi of 7.24.

In turn, `C[C@@H](O)[C@H](N)C(=O)N1CCC[C@H]1C(=O)N[C@@H](CCCNC(=N)N)C(=O)NCCC(=O)N[C@@H](CCCNC(=N)N)C(=O)N[C@@H](CCCNC(=N)N)C(=O)N[C@@H](CCCNC(=N)N)C(=O)N[C@@H](CCCCN)C(=O)N[C@@H](CCCCN)C(=O)N[C@@H](CCCNC(=N)N)C(=O)NCC(=O)O` had a pKi of under 7.00.

H-TPQRARRRKKRQ-OH gave a pKi of under 7.00.

H-TPRERRRAKRV-OH had a pKi of under 7.00.

`C[C@@H](O)[C@H](N)C(=O)N1CCC[C@H]1C(=O)N[C@@H](CCCNC(=N)N)C(=O)NCCCCCC(=O)N[C@@H](CCCNC(=N)N)C(=O)N[C@@H](CCCNC(=N)N)C(=O)N[C@@H](CCCNC(=N)N)C(=O)N[C@@H](CCCCN)C(=O)N[C@@H](CCCCN)C(=O)N[C@@H](CCCNC(=N)N)C(=O)NCC(N)=O` showed a pKi of under 7.00.

As for H-TPRARRRKKRN-OH, the pKi is 7.35.

`C[C@H](NC(=O)[C@@H]1CCCN1C(=O)[C@@H](N)[C@@H](C)O)C(=O)N[C@@H](CCC(=O)O)C(=O)N[C@@H](CCCNC(=N)N)C(=O)N[C@@H](CCCNC(=N)N)C(=O)N[C@@H](CCCNC(=N)N)C(=O)N[C@@H](CCCCN)C(=O)N[C@@H](CCCCN)C(=O)N[C@@H](CCCNC(=N)N)C(=O)N(C)CC(=O)O` (H-TPAERRRKKR[Sar]-OH) showed a pKi of under 7.00.

As to H-GAGAGATPQRARRRKKRW-OH, the pKi is 6.90.

In turn, H-TPRERARKKRG-NH2 had a pKi of under 7.00.

Take `C[C@@H](O)[C@H](N)C(=O)N1CCC[C@H]1C(=O)N[C@@H](CCCN=C(N)N)C(=O)N[C@@H](CCC(=O)O)C(=O)N[C@@H](CCCN=C(N)N)C(=O)N[C@@H](CCCN=C(N)N)C(=O)N[C@@H](CCCN=C(N)N)C(=O)N[C@@H](CCCCN)C(=O)N[C@@H](CCCCN)C(=O)N[C@@H](CCCNC(=N)N)C(=O)NCC(N)=O`: the pKi was under 7.00.

The compound `C[C@@H](O)[C@H](N)C(=O)N1CCC[C@H]1C(=O)N[C@@H](CCC(N)=O)C(=O)N[C@@H](CCCN=C(N)N)C(=O)N[C@H](CCCN=C(N)N)C(=O)N[C@@H](CCCN=C(N)N)C(=O)N[C@@H](CCCN=C(N)N)C(=O)N[C@@H](CCCN=C(N)N)C(=O)N[C@@H](CCCCN)C(=O)N[C@@H](CCCCN)C(=O)N[C@@H](CCCNC(=N)N)C(=O)NCC(=O)O` showed a pKi of under 7.00.

Take H-TPRERRRAKRG-NH2: the pKi was under 7.00.

With `C[C@H](NC(=O)[C@H](C)NC(=O)[C@H](CCCNC(=N)N)NC(=O)[C@H](CCCNC(=N)N)NC(=O)[C@H](CCCNC(=N)N)NC(=O)[C@H](CCC(=O)O)NC(=O)[C@H](CCCNC(=N)N)NC(=O)[C@@H]1CCCN1C(=O)[C@@H](N)[C@@H](C)O)C(=O)N[C@@H](CCCNC(=N)N)C(=O)NCC(=O)O`, the pKi was under 7.00.

H-TPRWRRRKKRG-NH2 gave a pKi of under 7.00.

In turn, H-TAAERRRKKRV-OH gave a pKi of under 7.00.

Turning to `C[C@H](NC(=O)[C@H](CCCN=C(N)N)NC(=O)[C@H](CCC(N)=O)NC(=O)[C@@H]1CCCN1C(=O)[C@@H](N)[C@@H](C)O)C(=O)N[C@@H](CCCN=C(N)N)C(=O)N[C@@H](CCCN=C(N)N)C(=O)N[C@@H](CCCN=C(N)N)C(=O)N[C@@H](CCCCN)C(=O)N[C@@H](CCCCN)C(=O)N[C@@H](CCCN=C(N)N)C(=O)N[C@@H](CCCN=C(N)N)C(=O)O`, the pKi was under 7.00.
